Source: patent US10617677B2, “Nuclear transport modulators and uses thereof” (Biogen MA Inc., priority 2012, dated 2020)
Entries after “also recorded” stand apart in the source; their conditions may differ.

Key:
MOG-induced EAE = experiment: MOG-induced experimental autoimmune encephalomyelitis (EAE) murine model; assay type: in vivo, mice; settings: 7.5 mg/kg p.o. starting on study day 11, Monday, Wednesday and Friday
Protocol: The EAE Model is an accepted model for the study of human CNS demyelinating diseases such as multiple sclerosis. The effects of Compound 1 were investigated in MOG-induced in an EAE murine model in female C57B1/6J mice. […] Compound 1 at 7.5 mg/kg was administered orally starting from day 11 (disease onset) on Monday, Wednesday and Friday for 3 consecutive weeks. The disease was induced by the single intradermal injection of MOG emulsified in Complete Freund's Adjuvant (CFA) on study day 0, followed by intraperitoneal supplemental immunostimulation with pertussis toxin (PT) carried out on study day 0, and again 48 hours later on study day 2.

[1] = tested on: collagen-induced arthritis; experiment: Collagen-induced arthritis (CIA) in Lewis rats; assay type: in vivo; settings: 4 mg/kg PO QoD from onset to day 28
Protocol: Forty (40) female Lewis rats (BK), aged 6 to 8 weeks with a pre-treatment body weight range of 180 to 200 g were divided randomly into four (4) groups (Groups A-D) of ten (10) rats each. The rats in Groups B to D were immunized intradermally with bovine CII in IFA at three sites near the base of the tail and over the back with 500 μL of the emulsion on day 0 (200 μL, 200 μL, 100 μL for each site). On day 7, the rats in Groups B-D were given booster injections with the same amount of the emulsion intradermally near the former injection sites. […] Rats were weighed daily and a drug holiday was given to an animal when a weight loss of greater than 13%. CIA development was evaluated via macroscopic scoring and measurements of paw swelling. […] Foot volume was measured by plethysmometry on the same day of the arthritic measurement throughout the study period. The cubage of each hind paw and swelling rate were measured and using the following equation: Swelling Rate=(CN−C0)/C0×100%. […] The clinical scores were summed for each animal, and the total average of all animals in each group was expressed as the mean arthritic score. […] Prepared sections of hind paws were subjected to hematoxylin and eosin (H&E) staining.

[2] = tested on: collagen-induced arthritis; experiment: Collagen-induced arthritis (CIA) Study No. 2 in Lewis rats; assay type: in vivo
Protocol: To further investigate the effect of the compounds described herein on inflammation biomarkers, a second CIA model was initiated. In this model, the groups were designated as group A (naïve), group B (model; vehicle-treated), group C (Compound 2 at 5 mg/kg QoD). The rats in groups B and C were immunized intradermally with bovine Type II collagen in IFA on day 0, and a booster injection was given on day 7. Compound 2 was orally administered to rats with CIA after the onset of arthritis (Day 11). CIA development was evaluated via macroscopic scoring and measurements of paw swelling. This was assessed every day for the first 5 days after sensitization (day 7), and then twice per week (Monday and Thursday) until Day 28 using the clinical scoring system described in Table 7 above. In addition, ELISAs for CD45, CRP, CCL2/MCP-1, TNF-α, IL1-β, IL-6, IL-17, and measurements for cathepsin K and elastase were performed 4 days (Day 15 of the study) and 10 days (Day 21 of the study—peak for the disease) after compound treatment and at the very end of the study (Day 28) on all group animals. Additionally, on the last day of the study (Day 28), a few representative animals from each group were subjected to three-dimensional micro-tomodensitometry of calcaneus, and bone erosion in the paws was quantified.
A LUMINEX® assay and ELISA were used to measure the effects of Compound 2 on the levels of pro-inflammatory cytokines and inflammation markers. Synovial fluid was collected on Day 21, after the first immunization, from 2 rats in the model group and 2 rats in the Compound 2-treated group, and at the end of the study from 2 rats in the naïve group, 3 rats in the model group and 3 rats in the Compound 2-treated group.
A LUMINEX® assay was also used to measure the levels of pro-inflammatory cytokines in serum. Serum samples (1 mL of blood per rat) were collected 4 days after compound treatment (Day 15), 10 days after compound treatment (usually at the disease peak—Day 21) and at the end of the study (Day 27).

| SMILES | disease (clinical) score and severity (MOG-induced EAE) | Clinical Scores, Joint Swelling and histological examination [1] | histopathology of hind paws (H&E) [1] | clinical scores compared to vehicle-treated rats ([2]; 5 mg/kg QoD oral) | joint swelling compared to vehicle-treated rats ([2]; 5 mg/kg QoD oral) | bone erosion in the rear paws compared to vehicle-treated rats ([2]; 5 mg/kg QoD oral, Day 28) | IL-1β production in serum compared to the model group ([2]; 5 mg/kg QoD, Days 15, 21 and 27) | C-reactive protein (CRP) in synovial fluid compared to the model group ([2]; 5 mg/kg QoD, Days 21 and 27) | IL-1β in synovial fluid compared to the model group ([2]; 5 mg/kg QoD, Days 21 and 27) | IL-6 in synovial fluid compared to the model group ([2]; 5 mg/kg QoD, Days 21 and 27) | MCP-1 in synovial fluid compared to the model group ([2]; 5 mg/kg QoD, Days 21 and 27) |
| --- | --- | --- | --- | --- | --- | --- | --- | --- | --- | --- | --- |
| CC(C)(C)C(=O)NNC(=O)/C=C\n1cnc(-c2cc(C(F)(F)F)cc(C(F)(F)F)c2)n1 [Compound 1, (Z)-3-(3-(3,5-bis(trifluoromethyl)phenyl)-1H-1,2,4-triazol-1-yl)-N′-pivaloylacrylohydrazide] | significantly decreased disease score and severity; also recorded: decrease in disease score and severity |  |  |  |  |  |  |  |  |  |  |
| O=C(/C=C\n1cnc(-c2cc(C(F)(F)F)cc(C(F)(F)F)c2)n1)NNC(=O)CN1CCOCC1 [Compound 2, (Z)-3-(3-(3,5-bis(trifluoromethyl)phenyl)-1H-1,2,4-triazol-1-yl)-N′-(2-morpholinoacetyl)acrylohydrazide] |  | therapeutic efficacy | relatively intact cartilage was found on the joint surface and pannus formation was minimal | significantly reduced | significantly reduced | significantly reduced bone erosion | inhibitory effect | inhibitory effects | inhibitory effects | inhibitory effects | inhibitory effects |
